According to article PMC6544242, “Development and validation of a multiplex UHPLC-MS/MS method for the determination of the investigational antibiotic against multi-resistant tuberculosis macozinone (PBTZ169) and five active metabolites in human plasma” (PLoS ONE, 2019):
Where two headings read alike, the source gives them in different places.

Key:
[1] = tested on: Mycobacterium tuberculosis; settings: not measured in this paper; cited from earlier work
[2] = Phase Ia clinical pharmacokinetic trial, plasma levels in healthy volunteers; settings: human
Description: The phase 1a clinical study assessing the safety and pharmacokinetics of PBTZ169 in healthy volunteers (NCT03423030), was performed at the Service of Clinical Pharmacology of the Lausanne University Hospital and was approved on 06.09.2017 (2017–01241) by the Ethics Committee of the Canton of Vaud (CER-VD) and on 17.11.2017 (2017DR1171) by Swissmedic. All volunteers gave their written informed consent.
The concentration measured in this plasma sample is 464 ng/mL, 147 ng/mL, 13 ng/mL, 12 ng/mL and 2 ng/mL for PBTZ169, Met 3-OH, Met 3-oxo, Met amino and Met 1-OH, respectively. […] Of note, measured plasma levels were multiplied by the factor 1.1 accounting for the blood 10:1 dilution due to citrate solution.

[3] = processed extract sample, 24h
[4] = human, 6 h
[5] = human

Compound	anti-TB activity in vitro (active / inactive) [1]	% from t0 ([3]; 4°C, level H (QC 1500 ng/mL)) [%]	% from t0 ([3]; 4°C, level L (QC 2 ng/mL)) [%]	% from t0 ([3]; 4°C, level M (QC 150 ng/mL)) [%]	% from t0 ([3]; RT, level H (QC 1500 ng/mL)) [%]	% from t0 ([3]; RT, level L (QC 2 ng/mL)) [%]	% from t0 ([3]; RT, level M (QC 150 ng/mL)) [%]	% from freshly processed samples (n=2) ([4]; 0.5 ng/mL) [%]	% from freshly processed samples (n=2) ([4]; 1 ng/mL) [%]	% from freshly prepared samples ([4]; 2 ng/mL) [%]	% from freshly processed samples (n=2) ([4]; 2 ng/mL) [%]	% from freshly processed samples (n=2) ([4]; 50 ng/mL) [%]	% from freshly prepared samples ([4]; 150 ng/mL) [%]	% from freshly processed samples (n=2) ([4]; 500 ng/mL) [%]	% from freshly processed samples (n=2) ([4]; 1000 ng/mL) [%]	% from freshly prepared samples ([4]; 1500 ng/mL) [%]	% from freshly processed samples (n=2) ([4]; 2000 ng/mL) [%]	% from t0 ([5]; 1 h, 10 ng/mL) [%]	% from t0 ([5]; 1 h, 20 ng/mL) [%]	% from t0 ([5]; 1 h, 50 ng/mL) [%]	other results
O=c1nc(N2CCN(CC3(O)CCCCC3)CC2)sc2c([N+](=O)[O-])cc(C(F)(F)F)cc12 [Met 1-OH]	active	-2	-12	-9	-12	-55	-33	-15	-9	-4	-4	-1	-3	-1	0	-2	-1	4	3	-1	plasma levels in volunteers ([2]; in vivo): below 0.5 ng/mL; % from t0 ([5]; 1 h, 100 ng/mL): 2%; % from t0 ([5]; 1 h, 200 ng/mL): -1%; % from t0 ([5]; 1 h, 500 ng/mL): -4%; % from t0 ([5]; 2 h, 10 ng/mL): 1%; % from t0 ([5]; 2 h, 20 ng/mL): -2%; % from t0 ([5]; 2 h, 50 ng/mL): -4%; % from t0 ([5]; 2 h, 100 ng/mL): 0%; % from t0 ([5]; 2 h, 200 ng/mL): -3%; % from t0 ([5]; 2 h, 500 ng/mL): -6%; % from t0 ([5]; 4 h, 10 ng/mL): -1%; % from t0 ([5]; 4 h, 20 ng/mL): 0%; % from t0 ([5]; 4 h, 50 ng/mL): -9%; % from t0 ([5]; 4 h, 100 ng/mL): -2%; % from t0 ([5]; 4 h, 200 ng/mL): -4%; % from t0 ([5]; 4 h, 500 ng/mL): -11%
O=c1nc(N2CCN(CC3CCCCC3O)CC2)sc2c([N+](=O)[O-])cc(C(F)(F)F)cc12 (stereo not shown) [Met 2-OH]	active	-4	-16	-10	-18	-61	-39	-16	-6	-8	-6	-4	-4	-3	0	-4	-2	1	1	-10	detection in vivo in plasma [2]: not detected; % from t0 ([5]; 1 h, 100 ng/mL): 2%; % from t0 ([5]; 1 h, 200 ng/mL): -2%; % from t0 ([5]; 1 h, 500 ng/mL): -9%; % from t0 ([5]; 2 h, 10 ng/mL): -1%; % from t0 ([5]; 2 h, 20 ng/mL): -1%; % from t0 ([5]; 2 h, 50 ng/mL): -17%; % from t0 ([5]; 2 h, 100 ng/mL): -2%; % from t0 ([5]; 2 h, 200 ng/mL): -5%; % from t0 ([5]; 2 h, 500 ng/mL): -15%; % from t0 ([5]; 4 h, 10 ng/mL): -3%; % from t0 ([5]; 4 h, 20 ng/mL): -2%; % from t0 ([5]; 4 h, 50 ng/mL): -30%; % from t0 ([5]; 4 h, 100 ng/mL): -3%; % from t0 ([5]; 4 h, 200 ng/mL): -6%; % from t0 ([5]; 4 h, 500 ng/mL): -26%
O=c1nc(N2CCN(CC3CCCC(O)C3)CC2)sc2c([N+](=O)[O-])cc(C(F)(F)F)cc12 (stereo not shown) [Met 3-OH]	active	-2	-14	-9	-14	-59	-36	-14	-13	-7	-10	-8	-5	-6	-1	-4	-2	6	8	12	% from freshly processed samples (n=2) ([4]; 0.2 ng/mL): 3%; % from t0 ([5]; 1 h, 100 ng/mL): 5%; % from t0 ([5]; 1 h, 200 ng/mL): 5%; % from t0 ([5]; 1 h, 500 ng/mL): 8%; % from t0 ([5]; 2 h, 10 ng/mL): 7%; % from t0 ([5]; 2 h, 20 ng/mL): 7%; % from t0 ([5]; 2 h, 50 ng/mL): 12%; % from t0 ([5]; 2 h, 100 ng/mL): 4%; % from t0 ([5]; 2 h, 200 ng/mL): 1%; % from t0 ([5]; 2 h, 500 ng/mL): 9%; % from t0 ([5]; 4 h, 10 ng/mL): 4%; % from t0 ([5]; 4 h, 20 ng/mL): 12%; % from t0 ([5]; 4 h, 50 ng/mL): 15%; % from t0 ([5]; 4 h, 100 ng/mL): 4%; % from t0 ([5]; 4 h, 200 ng/mL): 6%; % from t0 ([5]; 4 h, 500 ng/mL): 1%
O=C1CCCC(CN2CCN(c3nc(=O)c4cc(C(F)(F)F)cc([N+](=O)[O-])c4s3)CC2)C1 (stereo not shown) [Met 3-oxo]	active	-2	-14	-9	-10	-58	-37	-14	-2	-4	-10	-6	-4	-4	0	-4	-1	-1	-6	-22	% from freshly processed samples (n=2) ([4]; 0.2 ng/mL): 6%; % from t0 ([5]; 1 h, 100 ng/mL): 0%; % from t0 ([5]; 1 h, 200 ng/mL): -9%; % from t0 ([5]; 1 h, 500 ng/mL): -22%; % from t0 ([5]; 2 h, 10 ng/mL): -5%; % from t0 ([5]; 2 h, 20 ng/mL): -9%; % from t0 ([5]; 2 h, 50 ng/mL): -32%; % from t0 ([5]; 2 h, 100 ng/mL): -5%; % from t0 ([5]; 2 h, 200 ng/mL): -11%; % from t0 ([5]; 2 h, 500 ng/mL): -31%; concentration deviation in whole blood ([5]; 4 h): exceeded the accepted -15% limit; % from t0 ([5]; 4 h, 10 ng/mL): -9%; % from t0 ([5]; 4 h, 20 ng/mL): -15%; % from t0 ([5]; 4 h, 50 ng/mL): -51%; % from t0 ([5]; 4 h, 100 ng/mL): -10%; % from t0 ([5]; 4 h, 200 ng/mL): -18%; % from t0 ([5]; 4 h, 500 ng/mL): -50%
